What all share (test): Antibacterial activity (MIC), conventional two-fold dilution method
What all share (format): cell-based

One experiment concerns P. auruginosa E-2. The following applies: 10^6 CFU/ml, Medium N, 35° C., 18 to 20 hours. As to the method:
(§1) The test was carried out in the following manner: 10^6 CFU/ml of a bacterium to be tested was inoculated on a Medium N for disc susceptibility test (manufactured by Nissui Pharmaceutical Co., Ltd.), and cultivated at 35° C. for 18 to 20 hours.

A further experiment relates to S. aureus 209P JC-1. The following applies: Staphylococcus aureus, 10^6 CFU/ml, Medium N, 35° C., 18 to 20 hours. How it is done: as §1
A further experiment relates to K. pneumoniae PC1602. The following applies: Klebsiella pneumoniae, 10^6 CFU/ml, Medium N, 35° C., 18 to 20 hours. How it is done: as §1
Another experiment deals with S. marcescens No.1. The following applies: Serratia marcescens, 10^6 CFU/ml, Medium N, 35° C., 18 to 20 hours. As to the method: as §1
The next experiment relates to E. coli NIHJ JC-2. The following applies: Escherichia coli, NIHJJC2, 10^6 CFU/ml, Medium N, 35° C., 18 to 20 hours. As to the method: as §1
The next experiment relates to M. morganii 1510/S-1. The following applies: Morganella morganii, 1510/S1, 10^6 CFU/ml, Medium N, 35° C., 18 to 20 hours. How it is done:
as §1

The test system of the next experiment is R. cloacae G-0008. The following applies: 10^6 CFU/ml, Medium N, 35° C., 18 to 20 hours. How it is done:
as §1

The next experiment deals with C. freundii GN346/16. The following applies: Citrobacter freundii, 10^6 CFU/ml, Medium N, 35° C., 18 to 20 hours. How it is done: as §1
The subject of a further experiment is E. faecalis W-73. The following applies: Enterococcus faecalis, W73, 10^6 CFU/ml, Medium N, 35° C., 18 to 20 hours. How it is done:
as §1

In the next experiment the test system is S. epidermidis ATCC14990. The following applies: Staphylococcus epidermidis, 10^6 CFU/ml, Medium N, 35° C., 18 to 20 hours. As to the method: as §1
The next experiment deals with P. vulgaris GN76. The following applies: Proteus vulgaris, 10^6 CFU/ml, Medium N, 35° C., 18 to 20 hours. How it is done:
as §1

SMILES strings stand for the structures. Structures can show the parent of a compound that is named as a salt.

For `Nc1nc(C(=NOCF)C(=O)NC2C(=O)N3C(C(=O)[O-])=C(C=CC[n+]4cc5sccn5c4)CSC23)ns1` [Example 1, (6R, 7R)-7-[(Z)-2-(5-amino-1,2,4-thiadiazol-3-yl)-2-fluoromethoxyiminoacetamido]-3-[3-(imidazo[5,1-b]-thiazolium-6-yl)-1-propenyl]-3-cephem-4-carboxylate(internal salt)], the minimum inhibitory concentration (MIC) against P. auruginosa E-2 is 12.5 µg/mL; against S. aureus 209P JC-1, 0.2 µg/mL; in the experiment on K. pneumoniae PC1602, 0.05 µg/mL; in the experiment with S. marcescens No.1, 0.05 µg/mL; with E. coli NIHJ JC-2, less than 0.025 µg/mL; with M. morganii 1510/S-1 it was less than 0.025 µg/mL. Besides, the minimum inhibitory concentration (MIC) came to 0.05 µg/mL against R. cloacae G-0008; 0.05 µg/mL with C. freundii GN346/16; 12.5 µg/mL against E. faecalis W-73; 0.1 µg/mL in the experiment with S. epidermidis ATCC14990; 0.1 µg/mL in the experiment on P. vulgaris GN76.

Consider `Nc1nc(C(=NOCF)C(=O)NC2C(=O)N3C(C(=O)[O-])=C(C=CC[n+]4cc5sccn5c4CNC=O)CSC23)ns1` [Example 4, (6R, 7R)-7-[(Z)-2-(5-amino-1,2,4-thiadiazol-3-yl)-2-fluoromethoxyiminoacetamido]-3-[3-(5-formylaminomethylimidazo[5,1-b]thiazolium-6-yl]-1-propenyl]-3-cephem-4-carboxylate (internal salt)], for which the MIC was 12.5 µg/mL in the experiment with P. auruginosa E-2; 0.39 µg/mL against S. aureus 209P JC-1; less than 0.025 µg/mL against K. pneumoniae PC1602; 0.05 µg/mL with S. marcescens No.1; less than 0.025 µg/mL with E. coli NIHJ JC-2; less than 0.025 µg/mL against M. morganii 1510/S-1. Further, the minimum inhibitory concentration (MIC) is 0.05 µg/mL in the experiment on R. cloacae G-0008; less than 0.025 µg/mL in the experiment on C. freundii GN346/16; 12.5 µg/mL in the experiment on E. faecalis W-73; 0.2 µg/mL against S. epidermidis ATCC14990; 0.1 µg/mL against P. vulgaris GN76.

In the case of `Cc1csc2c[n+](CC=CC3=C(C(=O)[O-])N4C(=O)C(NC(=O)C(=NOCF)c5nsc(N)n5)C4SC3)cn12` [Example 2, (6R, 7R)-7-[(Z)-2-(5-amino-1,2,4-thiadiazol-3-yl)-2-fluoromethoxyiminoacetamido]-3-[3-(3-methylimidazo[5,1-b]thiazolium-6-yl)-1-propenyl]-3-cephem-4-carboxylate (internal salt)], the minimal inhibitory concentration (MIC) in the experiment with P. auruginosa E-2 was 25 µg/mL; against S. aureus 209P JC-1, 0.2 µg/mL; against K. pneumoniae PC1602, 0.05 µg/mL; with S. marcescens No.1, 0.05 µg/mL; against E. coli NIHJ JC-2, 0.05 µg/mL; in the experiment on M. morganii 1510/S-1 it was less than 0.025 µg/mL. Moreover, the minimal inhibitory concentration (MIC) came out at 0.05 µg/mL against R. cloacae G-0008; 0.05 µg/mL with C. freundii GN346/16; 12.5 µg/mL in the experiment on E. faecalis W-73; 0.2 µg/mL in the experiment on S. epidermidis ATCC14990; 0.1 µg/mL in the experiment on P. vulgaris GN76.

Regarding `NC(=O)c1csc2c[n+](CC=CC3=C(C(=O)[O-])N4C(=O)C(NC(=O)C(=NOCF)c5nsc(N)n5)C4SC3)cn12` [Example 3, (6R, 7R)-7-[(Z)-2-(5-amino-1,2,4-thiadiazol-3-yl)-2-fluoromethoxyiminoacetamido]-3-[3-(3-carbamoylimidazo [5,1-b]thiazolium-6-yl)-1-propenyl]-3-cephem-4-carboxylate (internal salt)], the MIC was 12.5 µg/mL against P. auruginosa E-2; 0.2 µg/mL with S. aureus 209P JC-1; 0.05 µg/mL in the experiment on K. pneumoniae PC1602; 0.05 µg/mL in the experiment on S. marcescens No.1; 0.05 µg/mL against E. coli NIHJ JC-2; less than 0.025 µg/mL against M. morganii 1510/S-1. Moreover, the minimal inhibitory concentration (MIC) with R. cloacae G-0008 came to 0.05 µg/mL; against C. freundii GN346/16, 0.05 µg/mL; with E. faecalis W-73, 12.5 µg/mL; with S. epidermidis ATCC14990 it was 0.2 µg/mL; in the experiment on P. vulgaris GN76, 0.1 µg/mL.

Broadly, the MIC is the lowest concentration found to suppress growth. Low values mean greater potency, high ones weaker potency.

For the origin of these results see US5661144A, “Cephem derivatives with 3-substituted bis heterocycles” (Meiji Seika Kabushiki Kaisha, priority 1994, dated 1997).
